Measurements as given in patent US6683077B2, “2-Amino-benzoxazinones for the treatment of viral infections” (G.D. Searle & Co., priority 1996, dated 2004).

What was measured:
[1] = test system: HCMV engineered virus RC256; experiment: microbe, parasite or virus in culture; type: cell-based, human cytomegalovirus; conditions: Human betaherpesvirus 5, Fibroblast, read-out: Antiviral Activity RC256, first value (EC50)
[2] = target: T1, Human leukocyte elastase (HLE) (Homo sapiens, UniProt P08246); experiment: Human leukocyte elastase assay; type: biochemical
T1 construct: gift of R. Senior, Washington University
T1 sequence (P08246 30-267): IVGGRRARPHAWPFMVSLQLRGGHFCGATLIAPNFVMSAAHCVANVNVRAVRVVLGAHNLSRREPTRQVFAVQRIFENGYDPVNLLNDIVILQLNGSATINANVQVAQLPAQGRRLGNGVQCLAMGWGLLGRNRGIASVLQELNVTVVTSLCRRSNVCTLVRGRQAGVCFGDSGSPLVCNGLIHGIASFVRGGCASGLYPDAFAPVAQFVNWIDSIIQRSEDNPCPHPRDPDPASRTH
Method: Human leukocyte elastase (HLE) (gift of R. Senior, Washington University) was dissolved in saline at 1 mg/ml and further diluted 1/20 in assay buffer (0.2 M Tris, pH 8.0) before use. 10 μl of test compound in DMSO (or DMSO alone), 100 μl of assay buffer and 50 μl of enzyme were added to 96 well plates, mixed and pre-incubated for 30 minutes at ambient temperature. Reaction was initiated by addition of 40 μl of 2.5 mM methoxysuccinyl-Ala-Ala-Pro-Val-p-nitroanilide (Sigma; 25 mM in DMSO diluted 1/10 in assay buffer before use). The increase in absorbance at 405 nm was monitored for 10 minutes with a Biotek EL340 plate reader.

[3] = @ 1 (concentration unit not given)
[4] = @ 10 (concentration unit not given)

Row | SMILES | EC50 [1] [µM] | HLE, % @ concentration [2, 3] [% @ 1] | also measured
1 | COc1ccc(C[C@H](Nc2nc3ccc(CNC(=O)OCc4ccncc4)c(C)c3c(=O)o2)C(=O)N(C)Cc2ccccc2)cc1 [Example 18d, (4-Pyridinyl)methyl[[2-[[1S-[(4-methoxyphenyl)methyl]-2-[methyl(phenylmethyl)amino]-2-oxoethyl]amino]-5-methyl-4-oxo-3,1-benzoxazin-6-yl]methyl]carbamate] | 12 | 55 | –
2 | CCN(Cc1ccccc1)C(=O)[C@H](Cc1ccc(OC)cc1)Nc1nc2ccc(CNC(=O)OC(C)(C)C)c(C)c2c(=O)o1 [Example 7o, 1,1-Dimethylethyl[[2-[[2-[ethyl(phenylmethyl)amino]-1S-[(4-methoxyphenyl)methyl]-2-oxoethyl]amino]-5-methyl-4-oxo-4H-3,1-benzoxazin-6-yl]methyl]carbamate] | 24 | – | HLE, % @ concentration ([2]; @ 12.5 (concentration unit not given)): 42% @ 12.5
3 | COC(=O)[C@H](Cc1ccccc1)Nc1nc2ccc(NC(=O)CCC(=O)O)c(C)c2c(=O)o1 [Example 11d, N-[6-[[(2-Carboxyethyl)carbonyl]amino]-5-methyl-4-oxo-4H-3,1-benzoxazin-2-yl]-L-phenylalanine, methyl ester] | > 100 | – | HLE, % @ concentration ([2]; @ 100 (concentration unit not given)): 76% @ 100
4 | Cc1c(CNC(=O)N(C)c2ccccc2)ccc2nc(N[C@@H](Cc3ccccc3)C(=O)N(C)Cc3ccccc3)oc(=O)c12 [Example 12i, N-Methyl-αS-[[5-methyl-6-[[[(methylphenylamino)carbonyl]amino]methyl]-4-oxo-4H-3,1-benzoxazin-2-yl]amino]-N-(phenylmethyl)benzenepropanamide] | 6 | 47 | –
5 | COc1ccc(C[C@H](Nc2nc3ccc(CNC(=O)OC(C)(C)C)c(C)c3c(=O)o2)C(=O)N2CCCC2)cc1 [Example 7g, 1,1-Dimethylethyl[[2-[[1S-[(4-methoxyphenyl)methyl]-2-oxo-2-(1-pyrrolidinyl)ethyl]amino]-5-methyl-4-oxo-4H-3,1-benzoxazin-6-yl]methyl]carbamate] | 20 | – | HLE, % @ concentration [2, 4]: 39% @ 10
6 | COc1ccc(C[C@H](Nc2nc3ccc(CNC(=O)NCc4ccccc4)c(C)c3c(=O)o2)C(=O)N(C)Cc2ccccc2)cc1 [Example 12j, 4-Methoxy-N-methyl-αS-[[5-methyl-4-oxo-6-[[[[(phenylmethyl)amino]carbonyl]amino]methyl]-4H-3,1-benzoxazin-2-yl]amino]-N-(phenylmethyl)benzenepropanamide] | 17 | 63 | –
7 | COc1ccc(C[C@H](Nc2nc3ccc(CNC(=O)OCC(C)C)c(C)c3c(=O)o2)C(=O)N(C)Cc2ccccc2)cc1 [Example 9h, 2-Methylpropyl[[2-[[1S-[(4-methoxyphenyl)methyl]-2-[methyl(phenylmethyl)amino]-2-oxoethyl]amino]-5-methyl-4-oxo-4H-3,1-benzoxazin-6-yl]methyl]carbamate] | 14 | – | HLE, % @ concentration [2, 4]: 45% @ 10
8 | Cc1c(CNC(=O)N[C@H](C)c2ccccc2)ccc2nc(N[C@@H](Cc3ccccc3)C(=O)N(C)Cc3ccccc3)oc(=O)c12 [Example 12g] | 30 | 45 | –
9 | CCN(Cc1ccccc1)C(=O)[C@H](Cc1ccccc1)Nc1nc2c(Br)cc(CNC(=O)CN3CCOCC3)c(C)c2c(=O)o1 [Example 15g, N-[[8-Bromo-2-[[2-[ethyl(phenylmethyl)amino]-2-oxo-1S-(phenylmethyl)ethyl]amino]-5-methyl-4-oxo-4H-3,1-benzoxazin-6-yl]methyl]morpholine-4-acetamide] | 16 | 22 | –
10 | Cc1c(CNC(=O)NCc2ccccc2)ccc2nc(N[C@@H](Cc3ccccc3)C(=O)N(C)Cc3ccccc3)oc(=O)c12 [Example 12h, N-Methyl-αS-[[5-methyl-4-oxo-6-[[[[(phenylmethyl)amino]carbonyl]amino]methyl]-4H-3,1-benzoxazin-2-yl]amino]-N-(phenylmethyl)benzenepropanamide] | 18 | 58 | –
11 | COc1ccc(C[C@H](Nc2nc3ccc(CNC(=O)OC(C)(C)C)c(C)c3c(=O)o2)C(=O)N(C)c2ccccc2)cc1 [Example 7t, 1,1-Dimethylethyl[[2-[[1S-[(4-methoxyphenyl)methyl]-2-(methylphenylamino)-2-oxoethyl]amino]-5-methyl-4-oxo-4H-3,1-benzoxazin-6-yl]methyl]carbamate] | 18 | – | HLE, % @ concentration [2, 4]: 20% @ 10
12 | COc1ccc(C[C@H](Nc2nc3ccc(CNC(=O)Cc4ccc(N(C)C)cc4)c(C)c3c(=O)o2)C(=O)N(C)Cc2ccccc2)cc1 [Example 9o, αS-[[6-[[[[4-(Dimethylamino)phenyl]acetyl]amino]methyl]-5-methyl-4-oxo-4H-3,1-benzoxazin-2-yl]amino]-4-methoxy-N-methyl-N-(phenylmethyl)benzenepropanamide] | 14 | 73 | –
13 | Cc1c(CNC(=O)OC(C)(C)C)ccc2nc(N[C@@H](Cc3ccccc3)C(=O)N(C)c3ccccc3)oc(=O)c12 [Example 7m, 1,1-Dimethylethyl([5-methyl-2-[[2-(methylphenylamino)-2-oxo-1S-(phenylmethyl)ethyl]amino]-5-methyl-4-oxo-4H-3,1-benzoxazin-6-yl]methyl]carbamate] | 5.2 | – | HLE, % @ concentration [2, 4]: 55% @ 10
14 | COc1ccc(C[C@H](Nc2nc3ccc(CNC(=O)OC(C)(C)C)c(C)c3c(=O)o2)C(=O)N(C)CCc2ccccc2)cc1 [Example 7q, 1,1-Dimethylethyl[[2-[[1S-[(4-methoxyphenyl)methyl]-2-[methyl(2-phenylethyl)amino]-2-oxoethyl]amino]-5-methyl-4-oxo-4H-3,1-benzoxazin-6-yl]methyl]carbamate] | 22 | 39 | –
15 | Cc1c(CNC(=O)OC2CCCC2)ccc2nc(N[C@@H](Cc3ccccc3)C(=O)N(C)Cc3ccccc3)oc(=O)c12 [Example 18f, Cyclopentyl[[5-methyl-2-[[2-[methyl(phenylmethyl)amino]-2-oxo-1S-(phenylmethyl)ethyl]amino]-4-oxo-4H-3,1-benzoxazin-6-yl]methyl]carbamate] | – | 59 | –
16 | CCN(Cc1ccccc1)C(=O)[C@H](Cc1ccccc1)Nc1nc2ccc(CNC(=O)OC(C)(C)C)c(C)c2c(=O)o1 [Example 7l, 1,1-Dimethylethyl[[2-[[2-[ethyl(phenylmethyl)amino]-2-oxo-1S-(phenylmethyl)ethyl]amino]-5-methyl-4-oxo-4H-3,1-benzoxazin-6-yl]methyl]carbamate] | 13 | – | –
17 | COc1ccc(C[C@H](Nc2nc3ccc(NC(=O)OC(C)(C)C)c(C)c3c(=O)o2)C(=O)N2CCOCC2)cc1 [Example 6i, N-[6-[[(1,1-Dimethylethoxy)carbonyl]amino]-5-methyl-4-oxo-4H-3,1-benzoxazin-2-yl]-O-methyl-L-tyrosine, morpholineamide] | 48 | – | –
18 | COc1ccc(C[C@H](Nc2nc3ccc(CNC(=O)CCc4ccncc4)c(C)c3c(=O)o2)C(=O)N(C)Cc2ccccc2)cc1 [Example 9f, N-[[2-[[1S-[(4-Methoxyphenyl)methyl]-2-[methyl(phenylmethyl)amino]-2-oxoethyl]amino]-5-methyl-4-oxo-4H-3,1-benzoxazin-6-yl]methyl]pyridine-4-propanamide] | 40 | – | –
19 | COc1ccc(C[C@H](Nc2nc3ccc(CNC(=O)OCCN4CCCCC4)c(C)c3c(=O)o2)C(=O)N(C)Cc2ccccc2)cc1 [Example 18a, 2-(1-Piperidinyl)ethyl[[2-[[1S-[(4-methoxyphenyl)methyl]-2-[methyl(phenylmethyl)amino]-2-oxoethyl]amino]-5-methyl-4-oxo-3,1-benzoxazin-6-yl]methyl]carbamate] | 5 | – | –
20 | COc1ccc(C[C@H](Nc2nc3ccc(CNC(=O)NCc4ccncc4)c(C)c3c(=O)o2)C(=O)N(C)Cc2ccccc2)cc1 [Example 9e, 4-Methoxy-N-methyl-αS-[[5-methyl-4-oxo-6-[[[[[(4-pyridinyl)methyl]amino]carbonyl]amino]methyl]-4H-3,1-benzoxazin-2-yl]amino]-N-(phenylmethyl)benzenepropanamide] | 35 | – | –
21 | Cc1c(CNC(=O)OC(C)(C)C)ccc2nc(N[C@@H](Cc3ccccc3)C(=O)N(C)Cc3cccnc3)oc(=O)c12 [Example 7s, 1,1-Dimethylethyl[[5-methyl-2-[[2-[methyl[(3-pyridinyl)methyl]amino]-1S-(phenylmethyl)-2-oxoethyl]amino]4-oxo-4H-3,1-benzoxazin-6-yl]methyl]carbamate] | 16 | – | –
22 | COC(=O)[C@@H](C)Nc1nc2cccc(C)c2c(=O)o1 [Example 1c, N-(5-Methyl-4-oxo-4H-3,1-benzoxazin-2-yl)-D-alanine, methyl ester] | > 100 | – | –
23 | Cc1c(CNC(=O)CN(C)C)cc(Br)c2nc(N[C@@H](Cc3ccccc3)C(=O)N(C)Cc3ccccc3)oc(=O)c12 [Example 15a, αS-[[8-Bromo-6-[[[2-(dimethylamino)acetyl]amino]methyl]-5-methyl-4-oxo-4H-3,1-benzoxazin-2-yl]amino]-N-methyl-N-(phenylmethyl)benzenepropanamide] | 21 | – | –
